This note sets out measurements from article PMC6858440, “Computational redesign of the Escherichia coli ribose-binding protein ligand binding pocket for 1,3-cyclohexanediol and cyclohexanol” (Scientific Reports, 2019).

Each structure is given as a SMILES string. pKd: −log10 of the molar value.

This assay concerns the target RbsB ribose-binding protein (Escherichia coli, UniProt P02925). The assay is described as follows: ITC with purified protein; also ~[…] °C Tm shift with […] ribose.

Sequence of RbsB ribose-binding protein (P02925 26-296): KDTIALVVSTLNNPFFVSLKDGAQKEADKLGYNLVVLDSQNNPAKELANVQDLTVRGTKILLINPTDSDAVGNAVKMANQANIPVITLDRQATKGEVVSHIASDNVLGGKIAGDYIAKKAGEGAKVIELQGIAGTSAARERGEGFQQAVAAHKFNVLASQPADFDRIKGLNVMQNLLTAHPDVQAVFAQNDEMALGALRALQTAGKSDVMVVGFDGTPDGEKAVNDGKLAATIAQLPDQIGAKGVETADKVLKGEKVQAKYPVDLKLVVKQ

In general, pKd refers to −log10 of the Kd, conventionally taken in molar units. On to `O=C[C@H](O)[C@H](O)[C@H](O)CO` [ribose], for which the pKd is 6.28.
